Source: patent US12280047B2, “Treatment of aneurysms” (Georgia State Research Foundation, Inc., priority 2017, dated 2025)

Legend:
Type in all cases: in vivo
ApoE−/− mice [1] = assay: Acipimox preventing AngII-induced abdominal aortic aneurysm (Example 12)
Description: To evaluate whether acipimox has inhibitory effects on AngII-induced AAA formation, male ApoE^−/− mice at age eight weeks were administrated either 1) acipimox (0.1% wt) or 2) vehicle control (water) by drinking water. After four weeks, Alzet osmotic mini pumps (Model 2004) were implanted into each group. Pumps were filled either with 1) saline vehicle or 2) solutions of Ang II (Sigma Chemical Co., St. Louis, Missouri, USA) that delivered (subcutaneously) 1.44 mg/kg/day of Ang II for 28 days. Pumps were placed into the subcutaneous space of isoflurane anesthetized mice through a small incision in the back of the neck that was closed with surgical glue. All incision sites healed rapidly without the need for any medication.
To quantify AAA incidence and size, the maximum width of abdominal aorta was measured with Image Pro Plus software (Media Cybernetics). Aneurysm incidence was quantified based on a definition of aneurysm as an external width of the suprarenal aorta that was increased by 50% or greater compared with aortas from saline-infused mice. The average diameter of the normal suprarenal aorta in control mice is 0.8 mm. […]
Abdominal aorta dimeter was measured by ultrasound as described above.
The effect of acipimox on the speed of propagation (i.e. PWV), which is parameter for arterial stiffness, was analyzed.

[2] = test system: ApoE−/− and ApoE−/−/IDO−/− mice; assay: Blood pressure and heart rate in AngII-infused mice; conditions: 4 weeks, mean ± s.e.m.; for sBP: AngII 1000 ng/min/kg; for Dbp / HR: AngII
Source text: (§1) IDO^−/− and ApoE^−/− mice were obtained from Jackson laboratory (Bar Harbor, Maine) in a C57BL/6 background. IDO^−/− mice were crossed with ApoE^−/− mice to generate ApoE^−/−/IDO^−/− mice. Mice were housed in temperature-controlled cages under a 12-hour light/dark cycle and given free access to water and normal chow. All procedures involving animals were approved by the Institutional Animal Care and Use Committee at the University of Oklahoma Health Sciences Center. […] Circ Res. (2014) 114:480-92.
Circ Res. (2014) 114:480-92.
AngII-induced mouse AAA formation in the atherosclerotic-susceptible strain (ApoE^−/−) has become the most widely used model. See Qin Z, et al., Angiotensin II-induced TLR4 mediated abdominal aortic aneurysm in apolipoprotein E knockout mice is dependent on STAT3. J Mol Cell Cardiol. (2015) 87:160-70; Rateri D L, et al., Prolonged infusion of angiotensin II in ApoE (−/−) mice promotes macrophage recruitment with continued expansion of abdominal aortic aneurysm. Am J Pathol. (2011) 179:1542-8; Cassis L A, et al., ANG II infusion promotes abdominal aortic aneurysms independent of increased blood pressure in hypercholesterolemic mice. Am J Physiol Heart Circ Physiol. (2009) 296:H1660-5; Daugherty A and Cassis L A. Mouse models of abdominal aortic aneurysms. Arterioscler Thromb Vasc Biol. (2004) 24:429-34; Owens A P, 3rd, Rateri D L, Howatt D A, Moore K J, Tobias P S, Curtiss L K, Lu H, Cassis L A and Daugherty A. MyD88 deficiency attenuates angiotensin II-induced abdominal aortic aneurysm formation independent of signaling through Toll-like receptors 2 and 4. Arterioscler Thromb Vasc Biol. (2011) 31:2813-9. To unravel the role of the Trp-Kyn pathway in AAA formation ApoE^−/−/IDO^−/− (double-knockout) mice were generated and the outcome of a 4-week AngII infusion (1000 ng/min/kg) in ApoE^−/− and ApoE^−/−/IDO^−/− mice was determined. As depicted in Table 1 and 2, AngII infusion increased blood pressure without affecting the heart rate or any metabolic parameters.

[3] = test system: ApoE−/− and ApoE−/−/IDO−/− mice; assay: Serum cytokine in AngII-infused mice; conditions: 4 weeks, mean ± s.e.m.
Source text: as §1
AngII infusion is intensely associated with vascular inflammation, which is considered a key mediator of AngII-induced AAA formation. See Qin Z, et al., Angiotensin II-induced TLR4 mediated abdominal aortic aneurysm in apolipoprotein E knockout mice is dependent on STAT3. J Mol Cell Cardiol. (2015) 87:160-70; Owens A P, et al., MyD88 deficiency attenuates angiotensin II-induced abdominal aortic aneurysm formation independent of signaling through Toll-like receptors 2 and 4. Arterioscler Thromb Vasc Biol. (2011) 31:2813-9. […] Circ Res. (2014) 114:480-92. Similarly, an increase in IFN-γ expression was evident in the aortas of AngII-treated ApoE^−/− and ApoE^−/−/IDO^−/− mice. The consequent induction of IDO expression in the aortas of AngII-infused ApoE^−/− mice was also observed (FIGS. 2A, 2B, and 2E). […] This may be due to the high content of Trp in mouse diets.

ApoE−/− mice [4] = assay: Acipimox preventing AngII-induced AAA in aged mice (Example 16); conditions: AngII 1,000 ng/kg/min four weeks
Description: To compare the effect of acipimox on treating AngII-induced abdominal aortic aneurysm in young (3 months old) or old (24 months old) mice, male ApoE^−/− mice in the aged mice group were treated with acipimox (0.1% wt) or vehicle control (water) by drinking water for 6 weeks. Four weeks later, mice in both age groups were infused with AngII (1,000 ng/kg/min) or saline (0.9% sodium chloride) by Alzet osmotic pumps for four weeks. AAA incidence and maximal abdominal aorta diameter were examined to evaluate the therapeutic effect of acipimox on AngII-induced AAA in old mice.
To quantify AAA incidence and size, the maximum width of abdominal aorta was measured with Image Pro Plus software (Media Cybernetics). Aneurysm incidence was quantified based on a definition of aneurysm as an external width of the suprarenal aorta that was increased by 50% or greater compared with aortas from saline-infused mice. The average diameter of the normal suprarenal aorta in control mice is 0.705 mm. Therefore, a threshold of 1.06 mm as evidence of aneurysm formation was set. […] After 4-weeks of AngII-infusion, mice where divided into two groups vehicle treated (n=10) or acipimox treated (n=15). Before treatment, the AAA incidence was 20% and 70% in young and old mice, respectively. After six weeks of treatment acipimox, AAA incidence decreased to 25% in the old mice group. […]

“Angiotensin II (DRVYIHPF; Angiotensin-2; UniProt P01019 25-32, looked up) [AngII, Angiotensin II (Sigma, A9525) infused to induce AAA in mice]” was tested, and the mortality rate (ApoE−/− mice [1]; Ang II 1.44 mg/kg/day 28 days, with acipimox 0.1% wt or vehicle) was 28.6%, the “mice that developed AAA (AAA incidence)” value (ApoE−/− mice [1]; Ang II 1.44 mg/kg/day s.c. 28 days, acipimox 0.1% wt or vehicle in drinking water, started four weeks before) was “Eighty” and the sBP ([2]; Apoe−/− mice) was 149.1 ± 19.5 mm Hg. The sBP ([2]; Apoe−/−/IDO−/− mice) was 155.6 ± 18.4 mm Hg, the Dbp ([2]; Apoe−/− mice) was 112.7 ± 17.3 mmHg and the HR ([2]; Apoe−/− mice) was 471 ± 42 Beats/min. The Dbp ([2]; Apoe−/−/IDO−/− mice) was 119.1 ± 14.9 mmHg, the HR ([2]; Apoe−/−/IDO−/− mice) was 453 ± 43 Beats/min and the CyPA ([3]; Apoe−/− mice) was 771.8 ± 36.8 pM. For the same substance, the IFN-y ([3]; Apoe−/− mice) was 24.91 ± 1.75 pg/mL, the “IL -6” value ([3]; Apoe−/− mice) was 20.07 ± 3.25 pg/mL and the TNF - a ([3]; Apoe−/− mice) was 123.7 ± 18.2 pg/mL. For the same substance, the CyPA ([3]; Apoe−/−/IDO−/− mice) was 572.2 ± 42.7 pM, the IFN-y ([3]; Apoe−/−/IDO−/− mice) was 28.32 ± 2.73 pg/mL and the “IL -6” value ([3]; Apoe−/−/IDO−/− mice) was 22.25 ± 5.45 pg/mL. It also gave a TNF - a ([3]; Apoe−/−/IDO−/− mice) of 118.5 ± 16.1 pg/mL, an AAA incidence (ApoE−/− mice [4]; old (24 months old) ApoE−/− mice) of 70% and an AAA incidence (ApoE−/− mice [4]; young (3 months old) ApoE−/− mice) of 20%.
